Assay results reported in patent US12527818B2, “Platinum-based chemotherapy, mast binding agents, glucocorticoid receptor (GR) binding agents, and/or HSP90 binding agents for uses in treating cancer” (Emory University, priority 2019, dated 2026).
Entries after “also recorded” stand apart in the source; their conditions may differ. Peptide text beside a SMILES is read from it. * marks the point of attachment. Cbz = O=C(OCc1ccccc1)*

What was measured:
MAST1 [1] = assay: MAST1 protein level in cancer cells upon 17-AAG treatment; type: cell-based, human
Protocol: (§1) Proteins that interact with MAST1 in cells were investigated through 2-dimensional (2D) gel electrophoresis-based proteomic profiling. GST or GST-fused MAST1 was pulled down from human 293T cells. The protein captured by GST-MAST1 but not by GST alone was excised from the 2D gel. Through mass spectrometry-based (MS-based) proteomic analysis, hsp90B was identified as a potential binding partner of MAST1. […] Experiments were performed to determine whether the interaction is limited to the hsp90B isoform by comparing the interaction between MAST1 and hsp90B or hsp90A. Hsp90A, another isoform of hsp90, also binds to MAST1 in cisplatin-resistant cancer cells. Although hsp90A binds to MAST1 in cisplatin-resistant cancer cells, the interaction was weaker compared with hsp90B. […] Experiments were performed to determine whether treatment with 17-AAG, a selective inhibitor of hsp90, alters MAST1 protein levels in cells.
Through a MS-based proteomic analysis, it was identified that MAST1 is specifically ubiquitinated at lysine residues K317 and K545 upon hsp90 inhibition. To investigate whether these 2 residues are the main ubiquitination sites of MAST1 that mediate proteasomal degradation upon hsp90 inhibition, the lysine-to-arginine mutant forms of MAST1, K317R, K545R, and the double KR mutant K317R/K545R (2KR) were generated.
(§2) Experiments were performed to determine whether ubiquitination of MAST1 at K317 and K545 upon hsp90 inhibition is involved in MAST1-mediated cisplatin-resistant cancer cell proliferation and tumor growth. […] The effect of MAST1 WT or 2KR was monitored in cells with MAST1 knockdown. […] This finding was further validated in vivo.

AKT or cRaf = assay: Protein levels of other hsp90 client proteins upon 17-AAG treatment; type: cell-based, human; conditions: same doses of 17-AAG as diminish MAST1
Protocol: as §1
(§3) The ubiquitination status of MAST1 in the presence and absence of hsp90 was assessed. […] This was further confirmed in cisplatin-resistant cancer cells.

MAST1 mRNA = MAST1 mRNA expression upon 17-AAG treatment; type: cell-based, human
[2] = system: cisplatin-resistant cancer cells; assay: Cisplatin response and cell viability of cisplatin-resistant cancer cells with 17-AAG; type: cell-based, human
Protocol: (§4) These in vitro observations were confirmed in vivo.
as §2

[3] = system: KB-3-1cisR xenograft tumors; assay: Xenograft mice bearing KB-3-1cisR tumors treated with 17-AAG and cisplatin; type: in vivo
Protocol: Mice were treated with cisplatin (5 mg/kg) and 17-AAG (50 mg/kg) from 5 days after xenograft.
as §4, §2

MEK1 [4] = assay: MEK1 activity in cisplatin-resistant cells upon 17-AAG treatment; type: cell-based, human; conditions: MAST1 WT
Protocol: as §2

hsp90A = hsp90A (Homo sapiens, UniProt P07900)
hsp90B = hsp90B (Homo sapiens, UniProt P08238)
MAST1 [5] = assay: MAST1 ubiquitination and degradation with proteasome inhibitor; type: cell-based, human
Protocol: as §3

MAST1 [6] = assay: MAST1 induction by cisplatin in cancer cell lines; type: cell-based, human; conditions: KB-3-1, A549, and A2780 cell lines
Protocol: (§5) Experiments were performed to determine whether MAST1 is induced by cisplatin treatment. Cell line-based studies indicate that MAST1 is increased upon cisplatin treatment in three cancer cell lines, KB-3-1, A549, and A2780. To validate this observation in vivo, cisplatin-resistant tumors were established by treating KB-3-1 bearing mice with sub-effective doses of cisplatin. The MAST1 gene was induced in xenografted tumors after cisplatin administration in mice. […] Cisplatin-resistant refers to patients with tumor recurrence within two years of cisplatin or carboplatin-based chemotherapy.

96 cellular TFs = assay: Transcription Factor Activation Profiling Array; type: cell-based, human; conditions: cisplatin treated vs nontreated KB-3-1 cells
Protocol: (§6) The Transcription Factor Activation Profiling Array detects activities of 96 cellular TFs, including HIF1, p53, and NF-kB, which are essential in regulating cellular gene expression. Among the 96 TFs, 6 were activated more than 1.8-fold when cells were treated with cisplatin, including GR/[…] (PR), NFAT, ATF2, CAR, and CBF. To investigate whether any of these TFs activate the MAST1 promoter, these 6 TFs were knocked down in KB-3-1 cells and a MAST1 promoter reporter activity assay was performed in the presence of cisplatin. Knockdown of GR but not other TFs attenuated MAST1 promoter activity. In addition, modulation of GR affected MAST1 promoter activity in the presence of cisplatin in cancer cells. Target downregulation or overexpression of GR abolished or enhanced MAST1 promoter activity in a cisplatin dose-dependent manner in KB-3-1 cells. In line with the changes seen in MAST1 mRNA, MAST1 protein level correlated with GR level in cancer cells (FIG. 3D).

GR = GR intracellular location by immunofluorescence staining; type: cell-based, human; conditions: KB-3-1 cancer cell line
Text: To explore the molecular mechanism by which the transcription factor activity of GR is enhanced by cisplatin treatment, the intracellular location of GR in cisplatin-treated cells was investigated. GR resides predominantly in the cytoplasm as part of a heterooligomeric complex of HSP 40, 70, and 90 and other proteins. Binding to its agonist ligand changes the conformation of GR, which dissociates from the HSPs and possibly other protein factors, and translocates into the nucleus. The nuclear translocated GR is considered to be activated GR. Thus, experiment were performed to determine whether cisplatin treatment changes the cellular location of GR from the cytosol to the nucleus in cancer cells. […] This observation was confirmed in vivo in xenograft mice. […] Furthermore, the translocation of GR was found in paired primary HNSCC patient tumors. GR was located mainly in the cytosol in tumors collected from patients before cisplatin or carboplatin therapy, whereas the GR was predominantly stained in the nucleus in tumors collected from patients after the therapy. These experiments indicate that cisplatin treatment activates GR by translocating it to the nucleus in cancer cells.

[7] = system: KB-3-1 xenografted tumors; assay: Xenograft mice bearing KB-3-1 tumors treated with cisplatin; type: in vivo
Protocol: as §5
To explore the molecular mechanism by which the transcription factor activity of GR is enhanced by cisplatin treatment, the intracellular location of GR in cisplatin-treated cells was investigated. GR resides predominantly in the cytoplasm as part of a heterooligomeric complex of HSP 40, 70, and 90 and other proteins. Binding to its agonist ligand changes the conformation of GR, which dissociates from the HSPs and possibly other protein factors, and translocates into the nucleus. The nuclear translocated GR is considered to be activated GR. Thus, experiment were performed to determine whether cisplatin treatment changes the cellular location of GR from the cytosol to the nucleus in cancer cells. […] This observation was confirmed in vivo in xenograft mice. […]

MAST1 promoter = MAST1 promoter reporter activity assay; type: cell-based, human; conditions: pMAST1-luc reporter
Protocol: as §6
GR binds to the glucocorticoid response element (GRE) on DNA within the promoter region and regulates genes. A GRE was identified within the MAST1 promoter sequence at −44 to −58. […]

KB-3-1 cells = assay: CellTiter-Glo Luminescent Cell Viability assay, GR antagonist or agonist with cisplatin; type: cell-based, human
Protocol: (§7) Loss of GR sensitizes cells to cisplatin. GR was inhibited by shRNA (top) or by antagonist (bottom) in the presence or absence of cisplatin. Cell viability and MEK activity was measured by CellTiter-Glo™ Luminescent Cell Viability assay and p-MEK1 S217/S221 blot, respectively. Cisplatin: 1 μg/ml, Mifepristone: 10 μM.
(§8) GR was enhanced by overexpression (top) or agonist (bottom) and cell viability and MEK1 activity was measured, cisplatin: 3 μg/ml, dexamethasone: 0.5 μM.
(§9) To investigate whether GR contributes to cisplatin resistance in cancer cells, GR was genetically or pharmacologically modulated and changes in cisplatin-resistant cancer cell proliferation as well as the activity of MEK1, which is the predominant substrate of MAST1, was monitored. […] Exogenous overexpression of myc tagged MAST1 restored the attenuated cisplatin-resistant cell growth and MEK1 activity in KB-3-1 cells with GR inhibition either by GR shRNA or GR antagonist mifepristone (FIG. 2A). […] In contrast, reduction of MAST1 by shRNA abolished the elevated cisplatin resistant cancer cell proliferation and MEK1 activity in KB-3-1 cells with activated GR either by flag-GR overexpression or GR agonist dexamethasone (FIG. 2C). Knockdown of MAST1 dramatically attenuated cisplatin resistant tumor growth in xenograft mice bearing flag-GR stably overexpressed KB-3-1 cells (FIG. 2D).

MEK1 [8] = assay: MEK1 activity by p-MEK1 S217/S221 blot, GR antagonist or agonist with cisplatin; type: cell-based, human; conditions: KB-3-1 cells
Protocol: as §7, §8, §9

[9] = system: ovarian cancer and head and neck cancer PDX; assay: Tumor volume in PDX mice treated with cisplatin, dexamethasone and lestaurtinib; type: in vivo; conditions: 5 mg/kg cisplatin, 0.1 mg/kg dexamethasone twice/week, 20 mg/kg lestaurtinib daily
Protocol: Tumor volumes were measured by caliper.
Therefore, we performed pilot experiments in vitro and in vivo to examine the concept.

GR, MAST1 = assay: Dexamethasone effect on GR activity, MAST1 expression and cisplatin-resistant tumor growth; conditions: treatment with dexamethasone
[10] = cisplatin 1 μg/ml, mifepristone 10 μM
[11] = cisplatin 3 μg/ml, dexamethasone 0.5 μM

Chain of hsp90B (P08238 whole entry): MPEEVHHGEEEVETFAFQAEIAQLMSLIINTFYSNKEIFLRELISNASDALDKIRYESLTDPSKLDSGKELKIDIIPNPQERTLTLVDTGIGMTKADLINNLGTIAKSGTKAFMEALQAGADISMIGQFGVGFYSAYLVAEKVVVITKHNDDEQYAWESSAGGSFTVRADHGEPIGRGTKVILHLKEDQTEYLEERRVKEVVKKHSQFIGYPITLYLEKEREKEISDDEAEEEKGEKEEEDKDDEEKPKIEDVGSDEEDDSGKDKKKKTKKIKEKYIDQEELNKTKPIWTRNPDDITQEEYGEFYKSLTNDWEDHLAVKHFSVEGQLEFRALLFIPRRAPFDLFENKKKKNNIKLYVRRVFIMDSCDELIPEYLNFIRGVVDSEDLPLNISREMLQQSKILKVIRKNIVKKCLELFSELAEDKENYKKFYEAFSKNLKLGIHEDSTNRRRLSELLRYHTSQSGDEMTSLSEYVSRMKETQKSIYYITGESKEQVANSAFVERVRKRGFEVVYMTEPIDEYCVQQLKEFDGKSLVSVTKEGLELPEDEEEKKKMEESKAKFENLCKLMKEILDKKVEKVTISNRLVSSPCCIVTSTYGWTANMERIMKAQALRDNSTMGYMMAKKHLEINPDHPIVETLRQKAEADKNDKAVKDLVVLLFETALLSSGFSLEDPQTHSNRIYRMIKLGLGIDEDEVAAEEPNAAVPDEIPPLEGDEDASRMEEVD

For C=CCNC1=C2CC(C)CC(OC)C(O)C(C)C=C(C)C(OC(N)=O)C(OC)C=CC=C(C)C(=O)NC(=CC1=O)C2=O (centres unmarked) [17-AAG, 19-(allylamino)-13-hydroxy-8,14-dimethoxy-4,10,12,16-tetramethyl-3,20,22-trioxo-2-azabicyclo[16.3.1]docosa-1(21),4,6,10,18-pentaen-9-yl carbamate], the “2KR MAST1 protein” value (MAST1 [1]; MAST1 K317R/K545R (2KR)) was “remained intact”, the “wild-type (WT) MAST1 protein” value (MAST1 [1]; MAST1 WT) was “degraded upon 17-AAG treatment in a dose-dependent manner” and the MAST1 protein levels (MAST1 [1]; cancer cells) was “diminished MAST1 protein levels in a dose-dependent manner; also recorded: decreased the level of MAST1”. For the same compound, the “protein levels of hsp90 client proteins AKT or cRaf” value (AKT or cRaf) was “insufficient to decrease”, the “MAST1 mRNA expression levels” value (MAST1 mRNA) was “remained unchanged” and the “cell viability and cisplatin resistance, cells expressing MAST1 2KR” value ([2]; MAST1 2KR, in the presence of cisplatin) was “no significant decrease in cell viability and cisplatin resistance”. The “cell viability and cisplatin resistance, cells expressing MAST1 WT” value ([2]; MAST1 WT, in the presence of cisplatin) was “sensitive to 17-AAG treatment”, the “cisplatin resistance of cisplatin-resistant cancer cells” value ([2]; with cisplatin) was “significantly sensitized cisplatin-resistant cancer cells to cisplatin” and the “tumor growth, MAST1 2KR xenograft tumors” value ([3]; KB-3-1cisR MAST1 2KR, cisplatin (5 mg/kg) and 17-AAG (50 mg/kg)) was “resistant to these effects of 17-AAG treatment”. The “tumor growth, MAST1 WT xenograft tumors” value ([3]; KB-3-1cisR MAST1 WT, cisplatin (5 mg/kg) and 17-AAG (50 mg/kg)) was “attenuated tumor growth upon cisplatin exposure”, the “MAST1 protein level in xenograft tumors” value ([3]; xenograft mice, with cisplatin) was “decreased” and the “xenograft tumor response to cisplatin” value ([3]; xenograft mice, with cisplatin) was “sensitized xenograft tumors to cisplatin”. For the same compound, the “activity of the downstream substrate MEK1” value (MEK1 [4]) was “attenuated activity of the downstream substrate MEK1”, the “binding to hsp90A (SPR)” value (hsp90A) was “binds to both hsp90A and hsp90B” and the “binding to hsp90B (SPR)” value (hsp90B) was “binds to both hsp90A and hsp90B”.
CC(C)C[C@@H](C=O)NC(=O)[C@H](CC(C)C)NC(=O)[C@H](CC(C)C)NC(=O)OCc1ccccc1 [MG-132] (Cbz-Leu-Leu-Leu-aldehyde) was tested, and the “17-AAG-mediated MAST1 degradation” value (MAST1 [5]; 293T cells) was “prevented 17-AAG-mediated MAST1 degradation” and the MAST1 ubiquitination (MAST1 [5]; proteasome inhibitor treatment) was “led to MAST1 ubiquitination”.
For N.N.[Cl][Pt][Cl] [cisplatin], the “MAST1 level upon cisplatin treatment” value (MAST1 [6]) was “increased”, the “transcription factor activation (6 of 96 TFs incl. GR/PR, NFAT, ATF2, CAR, CBF)” value (96 cellular TFs) was “more than 1.8 fold” and the GR cellular location (GR) was “translocated from the cytosol to the nucleus”. For the same compound, the “GR location in xenograft tumors” value ([7]; administration of cisplatin) was “nuclear translocation of GR”, the “MAST1 gene in xenografted tumors” value ([7]; after cisplatin administration in mice) was “induced” and the “WT MAST1 promoter activity” value (MAST1 promoter) was “induced WT MAST1 promoter activity”.
With CC#CC1(O)CCC2C3CCC4=CC(=O)CCC4=C3C(c3ccc(N(C)C)cc3)CC21C (centres unmarked) [mifepristone, 11-(4-(dimethylamino)phenyl)-17-hydroxy-13-methyl-17-(prop-1-yn-1-yl)-1,2,6,7,8,11,12,13,14,15, 16,17-dodecahydro-3H-cyclopenta[a]phenanthren-3-one] the “cisplatin response (cell viability)” value (KB-3-1 cells; [10]) was “sensitized cancer cells to cisplatin treatment” and the “MEK1 activity (MEK1 phosphorylation at S217/S221)” value (MEK1 [8]; [10]) was “attenuated MEK1 activity”.
For CC1CC2C3CCC4=CC(=O)C=CC4(C)C3(F)C(O)CC2(C)C1(O)C(=O)CO (centres unmarked) [dexamethasone, 9-fluoro-11,17-dihydroxy-17-(2-hydroxyacetyl)-10,13,16-trimethyl-6,7,8,9,10,11,12,13,14,15,16,17-dodecahydro-3H-cyclopenta [a]phenanthren-3-one], the “cisplatin response (cell viability)” value (KB-3-1 cells; [11]) was “conferred cisplatin resistance to cancer cells”, the MEK1 activity (MEK1 [8]; [11]) was “reactivation of MEK1” and the “tumor growth (tumor volume)” value [9] was “abolished the cisplatin effect”. The “GR activity, MAST1 expression, cisplatin-resistant tumor growth” value (GR, MAST1) was “enhanced GR activity, MAST1 expression, and cisplatin-resistant tumor growth”.
